# Molecular target: T1, human GPR119 (Homo sapiens, UniProt Q8TDV5)
# T1 construct: expressed in transfected cells
# T1 sequence (Q8TDV5 1-335): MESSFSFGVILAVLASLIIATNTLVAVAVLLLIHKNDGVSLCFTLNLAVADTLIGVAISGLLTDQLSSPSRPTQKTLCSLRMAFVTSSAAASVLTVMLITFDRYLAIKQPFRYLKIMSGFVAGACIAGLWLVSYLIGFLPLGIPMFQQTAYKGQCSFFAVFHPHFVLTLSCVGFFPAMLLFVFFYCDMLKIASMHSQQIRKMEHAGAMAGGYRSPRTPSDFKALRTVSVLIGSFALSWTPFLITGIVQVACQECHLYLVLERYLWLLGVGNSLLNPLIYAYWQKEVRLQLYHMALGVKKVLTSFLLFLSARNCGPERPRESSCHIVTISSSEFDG
# Assay: Functional cellular assay measuring GPR119-mediated cAMP release (HTRF) in HEK-293 cells stably expressing recombinant human GPR119
# Format: cell-based
# Conditions: cAMP response, cell line expressing human GPR119, 30 minutes at room temperature
# Procedure: Functional Cellular Assays Measuring GPR119-Mediated cAMP Release
# Compounds of the invention, which are agonists of GPR119, were characterized by functional assays measuring the cAMP response of HEK-293 cell lines stably expressing recombinant GPR119 from man, mouse or rat, or by using a hamster cell line HIT-T15 expressing GPR119 endogenously. The cAMP content was determined using a kit based on homogenous time-resolved fluorescence (HTRF) from Cisbio Corp. (cat. no. 62AM4PEC). For preparation, cells were split into T175 culture flasks and grown to near confluency in medium (DMEM/10% FCS for HEK-293 cells, and F-12K medium/10% horse serum/2.5% FCS for HIT-T15 cells, respectively). Medium was then removed and cells washed with PBS lacking calcium and magnesium ions, followed by proteinase treatment with accutase (Sigma-Aldrich, cat. no. A6964). Detached cells were washed and resuspended in assay buffer (1×HBSS; 20 mM HEPES, 0.1% BSA, 2 mM IBMX) and cellular density determined. They were then diluted to 400000 cells/mL and 25 μL-aliquots dispensed to the wells of 96-well plates. For measurement, 25 μL of test compound in assay buffer was added and incubated for 30 minutes at room temperature. After addition of HTRF reagents diluted in lysis buffer, the plates were incubated for 1 hour, followed by measuring the fluorescence ratio at 665 vs. 620 nm. Potency of the agonists was quantified by determining the concentrations that caused 50% of the maximal response/activation (EC50). See Table 7 for exemplary data obtained using the cell line expressing human GPR119.
row,EC50 [nM],SMILES
1,3390,"CN(C)C(=O)CN1Cc2ccc(N3CC[C@@H](Oc4ccc(-c5nnco5)cc4)C3=O)cc2C1=O [Example 2-29, N,N-dimethyl-2-[6-[(3R)-3-[4-(1,3,4-oxadiazol-2-yl)phenoxy]-2-oxo-pyrrolidin-1-yl]-1-oxo-isoindolin-2-yl]acetamide]"
2,2210,"CN(C)C(=O)CN1Cc2ccc(N3CC[C@@H](Oc4ccc(NC5=NC(=O)CS5)cc4)C3=O)cc2C1=O [Example 2-33, N,N-dimethyl-2-[1-oxo-6-[(3R)-2-oxo-3-[4-[(4-oxothiazol-2-yl)amino]phenoxy]pyrrolidin-1-yl]isoindolin-2-yl]acetamide]"
3,66,"C[S+]([O-])CN1Cc2ccc(N3CC[C@@H](Oc4ccc(OCC(F)(F)F)nc4)C3=O)cc2C1=O (stereo partly drawn) [Example 1-54, 2-(methylsulfinylmethyl)-6-[(3R)-2-oxo-3-[[6-(2,2,2-trifluoroethoxy)-3-pyridyl]oxy]pyrrolidin-1-yl]isoindolin-1-one]"
4,276,"CN(C)C(=O)c1nc2ccc(N3CC[C@@H](Oc4ccc(OCC5CC5)nc4)C3=O)cc2c(=O)[nH]1 [Example 1-44, 6-[(3R)-3-[[6-(cyclopropylmethoxy)-3-pyridyl]oxy]-2-oxo-pyrrolidin-1-yl]-N,N-dimethyl-4-oxo-3H-quinazoline-2-carboxamide]"
5,77,"CN(C)C(=O)CN1Cc2c(F)cc(N3CC[C@@H](Oc4ccc(OCC(F)(F)F)nc4)C3=O)cc2C1=O [Example 6-01, 2-[4-fluoro-1-oxo-6-[(3R)-2-oxo-3-[[6-(2,2,2-trifluoroethoxy)-3-pyridyl]oxy]pyrrolidin-1-yl]isoindolin-2-yl]-N,N-dimethyl-acetamide]"
6,488,"CN(C)C(=O)Cn1c(=O)c2cc(N3CC[C@@H](Oc4ccc(OCC5CC5)nc4)C3=O)ccc2n1C [Example 1-27, 2-[5-[(3R)-3-[[6-(cyclopropylmethoxy)-3-pyridyl]oxy]-2-oxo-pyrrolidin-1-yl]-1-methyl-3-oxo-indazol-2-yl]-N,N-dimethyl-acetamide]"
7,266,"O=C(CN1Cc2c(F)cc(N3CC[C@@H](Oc4ccc(OCC5CC5)nc4)C3=O)cc2C1=O)NCCO [Example 4-24, 2-[6-[(3R)-3-[[6-(cyclopropylmethoxy)-3-pyridyl]oxy]-2-oxo-pyrrolidin-1-yl]-4-fluoro-1-oxo-isoindolin-2-yl]-N-(2-hydroxyethyl)acetamide]"
8,14700,"CN(C)C(=O)CN1Cc2ccc(N3CC[C@@H](Oc4ccc(-n5cnnn5)cc4)C3=O)cc2C1=O [Example 2-44, N,N-dimethyl-2-[1-oxo-6-[(3R)-2-oxo-3-[4-(tetrazol-1-yl)phenoxy]pyrrolidin-1-yl]isoindolin-2-yl]acetamide]"
9,74,"CN(C)C(=O)CN1Cc2ccc(N3CC[C@@H](Oc4ccc(O[C@@H]5C[C@@H]6C[C@@H]6C5)nc4)C3=O)cc2C1=O [Example 2-18, 2-[6-[(3R)-3-[[6-[[(1S,5R)-3-bicyclo[3.1.0]hexanyl]oxy]-3-pyridyl]oxy]-2-oxo-pyrrolidin-1-yl]-1-oxo-isoindolin-2-yl]-N,N-dimethyl-acetamide]"
10,102,"NC(=O)CN1Cc2ccc(N3CC[C@@H](Oc4ccc(C(=O)c5ccc(F)cc5)cc4)C3=O)cc2C1=O [Example 2-50, 2-[6-[(3R)-3-[4-(4-fluorobenzoyl)phenoxy]-2-oxo-pyrrolidin-1-yl]-1-oxo-isoindolin-2-yl]acetamide]"
11,267,"Cn1nnc(N2Cc3ccc(N4CC[C@@H](Oc5ccc(OCC6CC6)nc5)C4=O)cc3C2=O)n1 [Example 1-10, 6-[(3R)-3-[[6-(cyclopropylmethoxy)-3-pyridyl]oxy]-2-oxo-pyrrolidin-1-yl]-2-(2-methyltetrazol-5-yl)isoindolin-1-one]"
12,126,"CN(C)C(=O)CN1Cc2c(F)cc(N3CC[C@@H](Oc4ccc(OCC(C)(C)C)nc4)C3=O)cc2C1=O [Example 6-02, 2-[6-[(3R)-3-[[6-(2,2-dimethylpropoxy)-3-pyridyl]oxy]-2-oxo-pyrrolidin-1-yl]-4-fluoro-1-oxo-isoindolin-2-yl]-N,N-dimethyl-acetamide]"
13,88,"O=C(CN1Cc2c(F)cc(N3CC[C@@H](Oc4ccc(OCC5CC5)nc4)C3=O)cc2C1=O)N1CCC(O)CC1 [Example 4-22, 6-[(3R)-3-[[6-(cyclopropylmethoxy)-3-pyridyl]oxy]-2-oxo-pyrrolidin-1-yl]-4-fluoro-2-[2-(4-hydroxy-1-piperidyl)-2-oxo-ethyl]isoindolin-1-one]"
14,52,"COC(=O)CN1Cc2ccc(N3CC[C@@H](Oc4ccc(OCC(F)(F)F)nc4)C3=O)cc2C1=O [Example 1-65, methyl 2-[1-oxo-6-[(3R)-2-oxo-3-[[6-(2,2,2-trifluoroethoxy)-3-pyridyl]oxy]pyrrolidin-1-yl]isoindolin-2-yl]acetate]"
15,82,"CN(C)C(=O)CN1Cc2ccc(N3CC[C@@H](Oc4ccc(OCC(F)(F)F)cc4)C3=O)cc2C1=O [Example 2-30, N,N-dimethyl-2-[1-oxo-6-[(3R)-2-oxo-3-[4-(2,2,2-trifluoroethoxy)phenoxy]pyrrolidin-1-yl]isoindolin-2-yl]acetamide]"
16,232,"CC(C)NC(=O)CN1Cc2ccc(N3CC[C@@H](Oc4ccc(OCC(F)(F)F)nc4)C3=O)cc2C1=O [Example 4-37, N-isopropyl-2-[1-oxo-6-[(3R)-2-oxo-3-[[6-(2,2,2-trifluoroethoxy)-3-pyridyl]oxy]pyrrolidin-1-yl]isoindolin-2-yl]acetamide]"
17,163,"NC(=O)CN1Cc2ccc(N3CC[C@@H](Oc4ccc(OCC5CC5)nc4)C3=O)cc2C1=O [Example 4-07, 2-[6-[(3R)-3-[[6-(cyclopropylmethoxy)-3-pyridyl]oxy]-2-oxo-pyrrolidin-1-yl]-1-oxo-isoindolin-2-yl]acetamide]"
18,271,"CCOc1ccc(O[C@@H]2CCN(c3cc(F)c4c(c3)C(=O)N(CC(N)=O)C4)C2=O)cn1 [Example 4-16, 2-[6-[(3R)-3-[(6-ethoxy-3-pyridyl)oxy]-2-oxo-pyrrolidin-1-yl]-4-fluoro-1-oxo-isoindolin-2-yl]acetamide]"
19,451,"CS(=O)(=O)CN1Cc2ccc(N3CC[C@@H](Oc4ccc(C(=O)C5CC5)nc4)C3=O)cc2C1=O [Example 1-59, 6-[(3R)-3-[[6-(cyclopropanecarbonyl)-3-pyridyl]oxy]-2-oxo-pyrrolidin-1-yl]-2-(methylsulfonylmethyl)isoindolin-1-one]"
20,60,"CN(C)C(=O)CN1Cc2ccc(N3CC[C@@H](Oc4ccc(OCC5CC5)nc4)C3=O)cc2C1=O [Example 1-39, 2-[6-[(3R)-3-[[6-(cyclopropylmethoxy)-3-pyridyl]oxy]-2-oxo-pyrrolidin-1-yl]-1-oxo-isoindolin-2-yl]-N,N-dimethyl-acetamide]"
21,680,"C[S+]([O-])CN1Cc2ccc(N3CC[C@@H](Oc4ccc(C(=O)C5CC5)nc4)C3=O)cc2C1=O (stereo partly drawn) [Example 1-58, 6-[(3R)-3-[[6-(cyclopropanecarbonyl)-3-pyridyl]oxy]-2-oxo-pyrrolidin-1-yl]-2-(methylsulfinylmethyl)isoindolin-1-one]"
22,90,"CN(C)C(=O)CN1Cc2ccc(N3CC[C@@H](Oc4cnc(OCC5CC5)c(Br)c4)C3=O)cc2C1=O [Example 2-47, 2-[6-[(3R)-3-[[5-bromo-6-(cyclopropylmethoxy)-3-pyridyl]oxy]-2-oxo-pyrrolidin-1-yl]-1-oxo-isoindolin-2-yl]-N,N-dimethyl-acetamide]"
23,202,"CN(C)C(=O)CN1Cc2ncc(N3CC[C@@H](Oc4ccc(OCC5CC5)nc4)C3=O)cc2C1=O [Example 1-11, 2-[3-[(3R)-3-[[6-(cyclopropylmethoxy)-3-pyridyl]oxy]-2-oxo-pyrrolidin-1-yl]-5-oxo-7H-pyrrolo[3,4-b]pyridin-6-yl]-N,N-dimethyl-acetamide]"
24,233,"CN(C)C(=O)CN1Cc2ccc(N3CC[C@@H](Oc4ccc(SC5CC5)nc4)C3=O)cc2C1=O [Example 2-20, 2-[6-[(3R)-3-[(6-cyclopropylsulfanyl-3-pyridyl)oxy]-2-oxo-pyrrolidin-1-yl]-1-oxo-isoindolin-2-yl]-N,N-dimethyl-acetamide]"
25,87,"O=C(O)CN1Cc2c(F)cc(N3CC[C@@H](Oc4ccc(OCCC5CC5)nc4)C3=O)cc2C1=O [Example 3-03, 2-[6-[(3R)-3-[[6-(2-cyclopropylethoxy)-3-pyridyl]oxy]-2-oxo-pyrrolidin-1-yl]-4-fluoro-1-oxo-isoindolin-2-yl]acetic acid]"
26,540,"COC(=O)C(C)N1Cc2ccc(N3CC[C@@H](Oc4ccc(OCC5CC5)nc4)C3=O)cc2C1=O (stereo partly drawn) [Example 1-04, methyl 2-[6-[(3R)-3-[[6-(cyclopropylmethoxy)-3-pyridyl]oxy]-2-oxo-pyrrolidin-1-yl]-1-oxo-isoindolin-2-yl]propanoate]"

# Source: patent US9908868B2, “Isoindolinone compounds as GPR119 modulators for the treatment of diabetes, obesity, dyslipidemia and related disorders” (SANOFI, priority 2014, dated 2018)
